Measured values as given in patent publication US20160159954A1, “POLYDENDRONS” (The Univeristy of Liverpool, priority 2013, published 2016).

Experiments:
Caco-2 cells [1] = test: MTT assay cytotoxicity; assay type: cell-based
Description: (§1) Caco-2 cells were purchased from American Type Culture Collection (ATCC, USA) and maintained in Dulbecco's Modified Eagles Medium (DMEM) supplemented with 15% filtered sterile foetal bovine serum. Cells were incubated at 37° C. and 5% CO2 and were routinely sub-cultured every 4 days when 90% confluent. Cell count and viability was determined using a Countess automated cell counter (Invitrogen).
(§2) Caco-2 cells were seeded at a density of 1.0×10^4 cells/100 μl in DMEM supplemented with 15% FBS into each well of a 96 well plate (Nunclon, Denmark) and incubated at 37° C. and 5% CO2. Cells from 4 separate flasks of biological replicates of each cell type were used (N1-4) to improve statistical power. Media was then aspirated from column 1 and replaced with media containing each polydendron or aqueous Nile Red solution at an equivalent 1 μM Nile Red concentration then diluted 1:1 in media across the plate up to column 11. Column 12 served as a negative control and consisted of media and untreated cells. Following polydendron addition, the plates were incubated for 24 hours or 120 hours at 37° C., 5% CO2 prior to assessment of cytotoxicity.
Following incubation of treated plates for 24 h or 120 h, 20 μl of 5 mg ml^−1 MTT reagent was added to each well and incubated for 2 hours. Subsequently, 100 μL MTT lysis buffer (50% N—N-Dimethylformamide in water containing 20% SDS, 2.5% glacial acetic acid and 2.5% hydrochloric acid, pH 4.7) was added to each well to lyse overnight at 37° C., 5% CO2. Following incubation the absorbance of each well was read using a Tecan Genosis plate reader at 560 nm (Tecan Magellan, Austria).

Caco-2 cells [2] = test: ATP assay (CellTiter-Glo) cytotoxicity; assay type: cell-based
Description: as §1, §2
Following incubation of treated plates for 24 h or 120 h, cells were equilibrated to room temperature for approximately 30 minutes. All but 20 μl of media was removed from each well and 20 μl CellTiter-Glo® (Promega, UK) reagent was added. All reagents were made fresh and in accordance with the manufacturer's instructions. Plates were put on an orbital shaker for 10 minutes to mix contents and allow for stabilisation of luminescence signal. Luminescence was then measured using a Tecan Genios plate reader (Tecan Magellan, Austria).

Caco-2 cell monolayers = test: Transcellular permeability of Nile Red across Caco-2 monolayers; assay type: in vitro ADME; details: 1 hour incubation
Description: Transwells were seeded with 3.5×10^4 cells per well and propagated to a monolayer over a 21 day period, during which media in the apical and basolateral wells was changed every other day. Trans-epithelial electrical resistance (TEER) values were monitored until they were >1300Ω. 1 μM of Nile Red polydendron or 1 μM aqueous Nile Red was added to the apical chamber of 4 wells and the basolateral chamber of 4 wells to quantify transport in both Apical to Basolateral (A>B) and Basolateral to Apical (B>A) direction and sampled on an hourly basis over a 4 h time period. Apparent permeability coefficient was then determined by the amount of compound transported over time using the equation: […]
where (dQ/dt) is the amount per time (nmol·sec^−1), A is the surface area of the filter and C0 is the starting concentration of the donor chamber (1 μM).
100 μl of each collected sample was mixed with 900 μl acetone, vortexed, sonicated for 6 minutes and centrifuged at 13300 rpm for 3 minutes. The supernatant was completely dried in a vacuum centrifuge at 30° C. until the dry solid sample was left. This was reconstituted in 150 μl acetonitrile, transferred to a 96-well black walled, flat bottomed plate and measured for fluorescence intensity excitation wavelength 480 nm, emission wavelength 560 nm using a Tecan Genios plate reader (Tecan Magellan, Austria).

A > B/B > A ratio (Caco-2 cell monolayers): 3.7140
SMILES: CCN(CC)c1ccc2nc3c4ccccc4c(=O)cc-3oc2c1 [aqueous Nile Red, Nile red]
effect on metabolic turnover of Caco-2 cells (MTT) (Caco-2 cells [1]; 24 hour incubation, compared to untreated cells, range of concentrations investigated): did not affect metabolic turnover
effect on viability of Caco-2 cells (MTT) (Caco-2 cells [1]; 120 hour incubation, range of concentrations investigated): did not affect the viability
EC50, MTT assay (Caco-2 cells [1]; Caco-2 cells, 120 hour incubation, FIG. 7): No EC50
effect on ATP presence in Caco-2 cells (Caco-2 cells [2]; 24 hour incubation, compared to untreated cells): ATP presence was not affected
effect on viability of Caco-2 cells (ATP assay) (Caco-2 cells [2]; 120 hour incubation, compared to untreated cells): viability was not affected
EC50, ATP assay (Caco-2 cells [2]; Caco-2 cells, 120 hour incubation, FIG. 9): No EC50
